Data reported in publication PMC3399817 (PLoS ONE, 2012).

Assays:
Assay in all cases: KINOMEscan
Assay type in all cases: binding
EPHA5 = biological target: T1, EPHA5 (Homo sapiens, UniProt P54756); settings: EPHA5, 1 uM
T1 construct: purchased Ambit KINOMEscan (DiscoverX)
Experimental: (§1) First, we used Ambit's KINOMEscan™ technology to identify those kinases that are inhibited for substrate binding by the compounds, all assayed at 1 μM. Second, we used Invitrogen's SelectScreen® Biochemical Kinase Profiling Service to determine the in vitro IC50s for the compounds against specific kinases.

PLK3 = biological target: T2, PLK3 (Homo sapiens, UniProt Q9H4B4); settings: PLK3, 1 uM
T2 construct: purchased Ambit KINOMEscan (DiscoverX)
Experimental: as §1

KIT = biological target: T3, KIT (Homo sapiens, UniProt P10721); settings: 1 uM
T3 construct: purchased Ambit KINOMEscan (DiscoverX)
Experimental: as §1

FLT3(D835H) = biological target: T4, FLT3(D835H) (Homo sapiens, UniProt P36888, D835H); settings: 1 uM
T4 construct: purchased Ambit KINOMEscan (DiscoverX)
Experimental: as §1

CSNK2A1 = biological target: T5, CSNK2A1 (Homo sapiens, UniProt P68400); settings: CSNK2A1, 1 uM
T5 construct: purchased Ambit KINOMEscan (DiscoverX)
Experimental: as §1

LZK = biological target: T6, LZK (Homo sapiens, UniProt O43283); settings: 1 uM
T6 construct: purchased Ambit KINOMEscan (DiscoverX)
Experimental: as §1

DYRK1B = biological target: T7, DYRK1B (Homo sapiens, UniProt Q9Y463); settings: 1 uM
T7 construct: purchased Ambit KINOMEscan (DiscoverX)
Experimental: as §1

FER = biological target: T8, FER (Homo sapiens, UniProt P16591); settings: 1 uM
T8 construct: purchased Ambit KINOMEscan (DiscoverX)
Experimental: as §1

ABL2 = biological target: T9, ABL2 (Homo sapiens, UniProt P42684); settings: ABL2, 1 uM
T9 construct: purchased Ambit KINOMEscan (DiscoverX)
Experimental: as §1

[1] = biological target: T10, ABL1(M351T)-phosphorylated (Homo sapiens, UniProt P00519, M351T); settings: 1 uM
T10 construct: purchased Ambit KINOMEscan (DiscoverX)
Experimental: as §1

BRK = biological target: T11, BRK (Homo sapiens, UniProt Q13882); settings: 1 uM
T11 construct: purchased Ambit KINOMEscan (DiscoverX)
Experimental: as §1

GRK4 = biological target: T12, GRK4 (Homo sapiens, UniProt P32298); settings: GRK4, 1 uM
T12 construct: purchased Ambit KINOMEscan (DiscoverX)
Experimental: as §1

PIK3CA(H1047Y) = biological target: T13, PIK3CA(H1047Y) (Homo sapiens, UniProt P42336, H1047Y); settings: 1 uM
T13 construct: purchased Ambit KINOMEscan (DiscoverX)
Experimental: as §1

AAK1 = biological target: T14, AAK1 (Homo sapiens, UniProt Q2M2I8); settings: AAK1, 1 uM
T14 construct: purchased Ambit KINOMEscan (DiscoverX)
Experimental: as §1

IKK-epsilon = biological target: T15, IKK-epsilon (Homo sapiens, UniProt Q14164); settings: 1 uM
T15 construct: purchased Ambit KINOMEscan (DiscoverX)
Experimental: as §1

BRSK2 = biological target: T16, BRSK2 (Homo sapiens, UniProt Q8IWQ3); settings: BRSK2, 1 uM
T16 construct: purchased Ambit KINOMEscan (DiscoverX)
Experimental: as §1

DYRK2 = biological target: T17, DYRK2 (Homo sapiens, UniProt Q92630); settings: DYRK2, 1 uM
T17 construct: purchased Ambit KINOMEscan (DiscoverX)
Experimental: as §1

TIE2 = biological target: T18, TIE2 (Homo sapiens, UniProt Q02763); settings: TIE2, 1 uM
T18 construct: purchased Ambit KINOMEscan (DiscoverX)
Experimental: as §1

ARK5 = biological target: T19, ARK5 (Homo sapiens, UniProt O60285); settings: ARK5, 1 uM
T19 construct: purchased Ambit KINOMEscan (DiscoverX)
Experimental: as §1

STK33 = biological target: T20, STK33 (Homo sapiens, UniProt Q9BYT3); settings: STK33, 1 uM
T20 construct: purchased Ambit KINOMEscan (DiscoverX)
Experimental: as §1

CHEK2 = biological target: T21, CHEK2 (Homo sapiens, UniProt O96017); settings: CHEK2, 1 uM
T21 construct: purchased Ambit KINOMEscan (DiscoverX)
Experimental: as §1

[2] = biological target: T22, RPS6KA1(Kin.Dom.2-C-terminal) (Homo sapiens, UniProt Q15418); settings: 1 uM
T22 construct: RPS6KA1(Kin.Dom.2-C-terminal); purchased Ambit KINOMEscan (DiscoverX)
Experimental: as §1

RIPK4 = biological target: T23, RIPK4 (Homo sapiens, UniProt P57078); settings: RIPK4, 1 uM
T23 construct: purchased Ambit KINOMEscan (DiscoverX)
Experimental: as §1

IGF1R = biological target: T24, IGF1R (Homo sapiens, UniProt P08069); settings: 1 uM
T24 construct: purchased Ambit KINOMEscan (DiscoverX)
Experimental: as §1

DDR2 = biological target: T25, DDR2 (Homo sapiens, UniProt Q16832); settings: DDR2, 1 uM
T25 construct: purchased Ambit KINOMEscan (DiscoverX)
Experimental: as §1

MYO3A = biological target: T26, MYO3A (Homo sapiens, UniProt Q8NEV4); settings: 1 uM
T26 construct: purchased Ambit KINOMEscan (DiscoverX)
Experimental: as §1

ERN1 = biological target: T27, ERN1 (Homo sapiens, UniProt O75460); settings: ERN1, 1 uM
T27 construct: purchased Ambit KINOMEscan (DiscoverX)
Experimental: as §1

ERBB4 = biological target: T28, ERBB4 (Homo sapiens, UniProt Q15303); settings: ERBB4, 1 uM
T28 construct: purchased Ambit KINOMEscan (DiscoverX)
Experimental: as §1

RIOK1 = biological target: T29, RIOK1 (Homo sapiens, UniProt Q9BRS2); settings: RIOK1, 1 uM
T29 construct: purchased Ambit KINOMEscan (DiscoverX)
Experimental: as §1

RIPK1 = biological target: T30, RIPK1 (Homo sapiens, UniProt Q13546); settings: RIPK1, 1 uM
T30 construct: purchased Ambit KINOMEscan (DiscoverX)
Experimental: as §1

[3] = biological target: T31, RPS6KA6(Kin.Dom.2-C-terminal) (Homo sapiens, UniProt Q9UK32); settings: 1 uM
T31 construct: RPS6KA6(Kin.Dom.2-C-terminal); purchased Ambit KINOMEscan (DiscoverX)
Experimental: as §1

CDKL2 = biological target: T32, CDKL2 (Homo sapiens, UniProt Q92772); settings: CDKL2, 1 uM
T32 construct: purchased Ambit KINOMEscan (DiscoverX)
Experimental: as §1

CDKL3 = biological target: T33, CDKL3 (Homo sapiens, UniProt Q8IVW4); settings: CDKL3, 1 uM
T33 construct: purchased Ambit KINOMEscan (DiscoverX)
Experimental: as §1

MLCK = biological target: T34, MLCK (Homo sapiens, UniProt Q32MK0); settings: 1 uM
T34 construct: purchased Ambit KINOMEscan (DiscoverX)
Experimental: as §1

NDR1 = biological target: T35, NDR1 (Homo sapiens, UniProt Q15208); settings: NDR1, 1 uM
T35 construct: purchased Ambit KINOMEscan (DiscoverX)
Experimental: as §1

BRAF(V600E) = biological target: T36, BRAF(V600E) (Homo sapiens, UniProt P15056, V600E); settings: 1 uM
T36 construct: purchased Ambit KINOMEscan (DiscoverX)
Experimental: as §1

PIK3C2G = biological target: T37, PIK3C2G (Homo sapiens, UniProt O75747); settings: 1 uM
T37 construct: purchased Ambit KINOMEscan (DiscoverX)
Experimental: as §1

ICK = biological target: T38, ICK (Homo sapiens, UniProt Q9UPZ9); settings: 1 uM
T38 construct: purchased Ambit KINOMEscan (DiscoverX)
Experimental: as §1

TXK = biological target: T39, TXK (Homo sapiens, UniProt P42681); settings: 1 uM
T39 construct: purchased Ambit KINOMEscan (DiscoverX)
Experimental: as §1

T20 sequence (Q9BYT3 whole entry): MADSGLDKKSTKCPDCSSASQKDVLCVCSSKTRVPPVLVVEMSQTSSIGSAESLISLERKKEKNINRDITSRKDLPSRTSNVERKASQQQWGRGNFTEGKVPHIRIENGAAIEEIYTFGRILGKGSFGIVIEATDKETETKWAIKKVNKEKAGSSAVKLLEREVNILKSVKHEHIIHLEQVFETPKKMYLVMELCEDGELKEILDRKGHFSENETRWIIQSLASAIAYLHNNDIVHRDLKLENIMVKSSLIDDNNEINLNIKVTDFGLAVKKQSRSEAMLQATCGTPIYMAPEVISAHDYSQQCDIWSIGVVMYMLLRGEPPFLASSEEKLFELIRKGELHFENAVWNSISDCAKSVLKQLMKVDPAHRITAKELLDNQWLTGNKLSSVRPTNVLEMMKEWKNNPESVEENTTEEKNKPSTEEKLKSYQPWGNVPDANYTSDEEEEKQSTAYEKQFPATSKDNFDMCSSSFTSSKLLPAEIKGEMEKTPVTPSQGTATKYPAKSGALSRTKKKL
T6 sequence (O43283 whole entry): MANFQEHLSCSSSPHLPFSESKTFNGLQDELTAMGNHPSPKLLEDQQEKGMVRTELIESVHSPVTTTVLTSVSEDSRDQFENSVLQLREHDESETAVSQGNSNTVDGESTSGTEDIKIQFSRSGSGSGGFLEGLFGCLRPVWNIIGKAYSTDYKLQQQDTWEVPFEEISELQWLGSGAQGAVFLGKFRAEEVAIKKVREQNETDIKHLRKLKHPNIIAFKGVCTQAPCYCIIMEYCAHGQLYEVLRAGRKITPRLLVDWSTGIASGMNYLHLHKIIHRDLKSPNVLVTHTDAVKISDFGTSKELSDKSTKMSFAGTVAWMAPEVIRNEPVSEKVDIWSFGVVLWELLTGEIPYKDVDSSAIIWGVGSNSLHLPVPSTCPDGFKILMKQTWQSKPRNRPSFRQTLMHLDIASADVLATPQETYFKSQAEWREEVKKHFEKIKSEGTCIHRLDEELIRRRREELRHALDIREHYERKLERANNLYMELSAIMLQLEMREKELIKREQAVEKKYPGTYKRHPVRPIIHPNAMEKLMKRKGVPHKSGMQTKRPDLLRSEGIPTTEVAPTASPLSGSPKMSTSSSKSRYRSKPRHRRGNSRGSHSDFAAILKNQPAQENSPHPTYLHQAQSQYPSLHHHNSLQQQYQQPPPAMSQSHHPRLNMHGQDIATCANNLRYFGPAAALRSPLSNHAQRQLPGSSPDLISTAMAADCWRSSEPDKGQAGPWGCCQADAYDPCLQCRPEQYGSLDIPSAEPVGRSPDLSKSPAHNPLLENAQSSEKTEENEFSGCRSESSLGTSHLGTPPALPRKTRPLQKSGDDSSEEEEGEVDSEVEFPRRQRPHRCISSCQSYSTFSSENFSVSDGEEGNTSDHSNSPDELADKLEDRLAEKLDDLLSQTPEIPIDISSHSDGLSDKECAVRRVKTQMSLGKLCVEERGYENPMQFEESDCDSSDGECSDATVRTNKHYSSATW
T25 sequence (Q16832 22-855): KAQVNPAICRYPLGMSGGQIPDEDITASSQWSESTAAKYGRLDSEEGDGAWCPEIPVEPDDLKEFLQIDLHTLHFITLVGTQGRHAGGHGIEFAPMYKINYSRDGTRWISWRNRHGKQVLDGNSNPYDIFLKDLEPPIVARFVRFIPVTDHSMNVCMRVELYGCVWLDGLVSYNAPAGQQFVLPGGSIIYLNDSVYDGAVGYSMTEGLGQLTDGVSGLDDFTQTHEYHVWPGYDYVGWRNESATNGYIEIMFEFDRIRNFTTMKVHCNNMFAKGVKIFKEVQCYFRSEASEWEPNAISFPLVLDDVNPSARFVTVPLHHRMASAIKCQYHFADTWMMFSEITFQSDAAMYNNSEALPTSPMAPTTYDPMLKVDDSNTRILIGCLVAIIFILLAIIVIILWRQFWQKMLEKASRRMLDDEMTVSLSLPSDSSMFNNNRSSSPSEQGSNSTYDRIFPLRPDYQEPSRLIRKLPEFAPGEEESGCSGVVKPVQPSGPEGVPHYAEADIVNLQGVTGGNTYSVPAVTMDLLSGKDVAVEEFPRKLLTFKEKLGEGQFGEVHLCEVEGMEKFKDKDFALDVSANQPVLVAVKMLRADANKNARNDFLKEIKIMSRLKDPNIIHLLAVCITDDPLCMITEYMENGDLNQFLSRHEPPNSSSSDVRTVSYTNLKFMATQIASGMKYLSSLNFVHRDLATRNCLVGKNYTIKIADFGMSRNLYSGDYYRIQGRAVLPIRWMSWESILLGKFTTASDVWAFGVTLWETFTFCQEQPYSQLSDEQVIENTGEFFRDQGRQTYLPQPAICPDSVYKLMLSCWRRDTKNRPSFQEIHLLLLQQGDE
T11 sequence (Q13882 whole entry): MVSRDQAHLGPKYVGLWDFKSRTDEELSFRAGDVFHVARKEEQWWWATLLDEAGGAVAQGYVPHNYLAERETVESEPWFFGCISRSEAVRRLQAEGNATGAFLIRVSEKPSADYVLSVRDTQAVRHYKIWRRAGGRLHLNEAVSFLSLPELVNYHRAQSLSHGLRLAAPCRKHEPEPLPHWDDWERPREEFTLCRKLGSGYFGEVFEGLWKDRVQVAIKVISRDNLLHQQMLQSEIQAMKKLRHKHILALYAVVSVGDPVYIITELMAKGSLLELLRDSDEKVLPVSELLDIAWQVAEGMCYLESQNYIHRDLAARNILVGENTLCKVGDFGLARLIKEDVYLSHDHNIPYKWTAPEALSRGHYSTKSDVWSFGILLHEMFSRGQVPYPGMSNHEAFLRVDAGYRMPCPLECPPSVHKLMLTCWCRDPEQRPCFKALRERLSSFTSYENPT
T35 sequence (Q15208 whole entry): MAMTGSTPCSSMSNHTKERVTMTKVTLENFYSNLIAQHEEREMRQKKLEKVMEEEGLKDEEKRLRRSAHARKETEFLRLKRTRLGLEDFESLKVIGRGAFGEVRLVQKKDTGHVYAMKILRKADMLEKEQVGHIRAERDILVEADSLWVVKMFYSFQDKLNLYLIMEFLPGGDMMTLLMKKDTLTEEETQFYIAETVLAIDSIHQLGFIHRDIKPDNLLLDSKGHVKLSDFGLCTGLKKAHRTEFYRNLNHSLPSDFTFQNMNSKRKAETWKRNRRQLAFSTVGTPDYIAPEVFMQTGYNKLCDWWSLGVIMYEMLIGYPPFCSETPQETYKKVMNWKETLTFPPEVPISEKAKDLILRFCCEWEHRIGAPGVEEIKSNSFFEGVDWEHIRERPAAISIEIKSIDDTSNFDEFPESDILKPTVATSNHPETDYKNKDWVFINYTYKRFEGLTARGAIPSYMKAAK
T5 sequence (P68400 whole entry): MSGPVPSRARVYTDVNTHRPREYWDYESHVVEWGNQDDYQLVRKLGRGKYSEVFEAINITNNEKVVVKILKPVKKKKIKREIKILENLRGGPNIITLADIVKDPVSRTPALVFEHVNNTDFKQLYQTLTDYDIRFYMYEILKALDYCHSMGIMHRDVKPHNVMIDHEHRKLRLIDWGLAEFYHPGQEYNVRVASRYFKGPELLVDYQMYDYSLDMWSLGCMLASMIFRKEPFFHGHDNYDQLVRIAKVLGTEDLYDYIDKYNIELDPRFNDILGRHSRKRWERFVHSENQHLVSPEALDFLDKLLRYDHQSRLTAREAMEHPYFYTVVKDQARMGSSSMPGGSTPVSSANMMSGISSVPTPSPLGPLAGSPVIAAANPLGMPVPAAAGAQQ
T28 sequence (Q15303 26-1308): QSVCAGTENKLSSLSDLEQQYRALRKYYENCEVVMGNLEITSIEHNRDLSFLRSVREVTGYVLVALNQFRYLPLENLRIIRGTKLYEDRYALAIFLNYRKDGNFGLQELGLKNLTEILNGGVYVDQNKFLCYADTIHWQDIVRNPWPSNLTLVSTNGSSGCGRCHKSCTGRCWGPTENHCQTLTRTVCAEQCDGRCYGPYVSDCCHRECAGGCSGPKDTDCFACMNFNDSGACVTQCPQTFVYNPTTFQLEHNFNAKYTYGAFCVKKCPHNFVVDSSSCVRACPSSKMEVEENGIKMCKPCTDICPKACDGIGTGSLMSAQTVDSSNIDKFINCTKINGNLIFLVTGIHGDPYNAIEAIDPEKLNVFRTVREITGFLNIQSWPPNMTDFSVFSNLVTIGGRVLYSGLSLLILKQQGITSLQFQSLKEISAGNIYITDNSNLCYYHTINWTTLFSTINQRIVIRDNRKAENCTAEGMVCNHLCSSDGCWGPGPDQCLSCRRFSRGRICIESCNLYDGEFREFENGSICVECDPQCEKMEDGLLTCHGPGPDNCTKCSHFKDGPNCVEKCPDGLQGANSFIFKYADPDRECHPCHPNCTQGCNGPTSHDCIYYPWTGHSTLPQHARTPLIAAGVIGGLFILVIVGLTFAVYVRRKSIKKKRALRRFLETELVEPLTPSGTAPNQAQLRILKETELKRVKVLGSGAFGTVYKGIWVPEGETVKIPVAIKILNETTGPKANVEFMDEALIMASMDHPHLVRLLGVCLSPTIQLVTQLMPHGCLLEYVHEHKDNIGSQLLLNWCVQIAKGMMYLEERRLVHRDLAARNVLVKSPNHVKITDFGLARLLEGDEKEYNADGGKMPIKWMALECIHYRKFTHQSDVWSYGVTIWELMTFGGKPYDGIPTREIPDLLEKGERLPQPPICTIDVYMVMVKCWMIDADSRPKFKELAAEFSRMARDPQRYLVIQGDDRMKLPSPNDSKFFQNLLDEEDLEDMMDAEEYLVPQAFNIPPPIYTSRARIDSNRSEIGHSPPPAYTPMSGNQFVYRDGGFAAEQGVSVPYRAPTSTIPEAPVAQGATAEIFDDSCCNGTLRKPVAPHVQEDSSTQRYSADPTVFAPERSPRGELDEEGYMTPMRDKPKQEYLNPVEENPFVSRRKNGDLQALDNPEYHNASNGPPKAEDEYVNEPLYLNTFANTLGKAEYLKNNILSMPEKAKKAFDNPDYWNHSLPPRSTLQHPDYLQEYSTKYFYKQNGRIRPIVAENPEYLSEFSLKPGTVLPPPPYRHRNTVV

Row | SMILES | % binding compared to no inhibitor control (EPHA5) [%] | % binding compared to no inhibitor control (PLK3) [%] | % binding compared to no inhibitor control (KIT) [%] | % binding compared to no inhibitor control (FLT3(D835H)) [%] | % binding compared to no inhibitor control (CSNK2A1) [%] | % binding compared to no inhibitor control (LZK) [%] | % binding compared to no inhibitor control (DYRK1B) [%] | % binding compared to no inhibitor control (FER) [%] | % binding compared to no inhibitor control (ABL2) [%] | % binding compared to no inhibitor control [1] [%] | % binding compared to no inhibitor control (BRK) [%] | % binding compared to no inhibitor control (GRK4) [%] | % binding compared to no inhibitor control (PIK3CA(H1047Y)) [%] | % binding compared to no inhibitor control (AAK1) [%] | % binding compared to no inhibitor control (IKK-epsilon) [%] | % binding compared to no inhibitor control (BRSK2) [%] | % binding compared to no inhibitor control (DYRK2) [%] | % binding compared to no inhibitor control (TIE2) [%] | % binding compared to no inhibitor control (ARK5) [%] | % binding compared to no inhibitor control (STK33) [%] | further results
1 | COc1ccc(-c2cc3nccn3c(Nc3ncccc3C(N)=O)n2)cc1OC.Cl.Cl [BAY61-3606, 2-[7-(3,4-dimethoxyphenyl)-imidazo [1,2-c]pyrimidin-5-ylamino] nicotinamide dihydrochloride, reference compound] | 77 | 37 | 8.4 | 7.9 | 70 | 64 | 81 | 69 | 95 | 81 | 87 | 73 | 80 | 1.6 | 33 | 84 | 24 | 100 | 62 | 87 | % binding compared to no inhibitor control (CHEK2): 100%; % binding compared to no inhibitor control [2]: 50%; % binding compared to no inhibitor control (RIPK4): 19%; % binding compared to no inhibitor control (IGF1R): 97%; % binding compared to no inhibitor control (DDR2): 74%; % binding compared to no inhibitor control (MYO3A): 80%; % binding compared to no inhibitor control (ERN1): 72%; % binding compared to no inhibitor control (ERBB4): 90%; % binding compared to no inhibitor control (RIOK1): 31%; % binding compared to no inhibitor control (RIPK1): 86%; % binding compared to no inhibitor control [3]: 79%; % binding compared to no inhibitor control (CDKL2): 78%; % binding compared to no inhibitor control (CDKL3): 100%; % binding compared to no inhibitor control (MLCK): 100%; % binding compared to no inhibitor control (NDR1): 80%; % binding compared to no inhibitor control (BRAF(V600E)): 84%; % binding compared to no inhibitor control (PIK3C2G): 23%; % binding compared to no inhibitor control (ICK): 23%; % binding compared to no inhibitor control (TXK): 95%
2 | COc1ccccc1Nc1nc(-c2ccc(OC)c(OC)c2)cc2nccn12 [BAY derivative 6] | 100 | 100 | 60 | 42 | 86 | 100 | 57 | 100 | 93 | 92 | 59 | 100 | 100 | 52 | 96 | 100 | 56 | 100 | 93 | 100 | % binding compared to no inhibitor control (CHEK2): 97%; % binding compared to no inhibitor control [2]: 100%; % binding compared to no inhibitor control (RIPK4): 93%; % binding compared to no inhibitor control (IGF1R): 79%; % binding compared to no inhibitor control (DDR2): 100%; % binding compared to no inhibitor control (MYO3A): 100%; % binding compared to no inhibitor control (ERN1): 100%; % binding compared to no inhibitor control (ERBB4): 100%; % binding compared to no inhibitor control (RIOK1): 95%; % binding compared to no inhibitor control (RIPK1): 100%; % binding compared to no inhibitor control [3]: 93%; % binding compared to no inhibitor control (CDKL2): 100%; % binding compared to no inhibitor control (CDKL3): 100%; % binding compared to no inhibitor control (MLCK): 100%; % binding compared to no inhibitor control (NDR1): 100%; % binding compared to no inhibitor control (BRAF(V600E)): 100%; % binding compared to no inhibitor control (PIK3C2G): 100%; % binding compared to no inhibitor control (ICK): 100%; % binding compared to no inhibitor control (TXK): 78%
